Read-outs that look alike come from different tables or passages of the source.
Tests used:
Acinetobacter baumannii = test: Antimicrobial susceptibility testing (MIC), BD Phoenix Automated Microbiology System; format: cell-based; details: for MIC: Acinetobacter baumannii; on interpretation of the result: key: R, resistant; I, intermediate; S, susceptible; R*: *As a rule, when ESBL is detected, an interpretation of susceptible or intermediate for penicillins, cephalosporins and aztreonam is reported as resistant
Klebsiella ssp. = test: as above; format: cell-based; details: for MIC: Klebsiella, read-out: minimal inhibiting concentration; on interpretation of the result: key: R, resistant; I, intermediate; S, susceptible; R*: *As a rule, when ESBL is detected, an interpretation of susceptible or intermediate for penicillins, cephalosporins and aztreonam is reported as resistant
Pseudomonas aeruginosa = test: as above; format: cell-based; details: for MIC: Pseudomonas aeruginosa, read-out: minimal inhibiting concentration; on interpretation of the result: key: R, resistant; I, intermediate; S, susceptible; R*: *As a rule, when ESBL is detected, an interpretation of susceptible or intermediate for penicillins, cephalosporins and aztreonam is reported as resistant
Escherichia coli = test: as above; format: cell-based; details: for MIC: Escherichia coli, read-out: minimal inhibiting concentration; on interpretation of the result: key: R, resistant; I, intermediate; S, susceptible; R*: *As a rule, when ESBL is detected, an interpretation of susceptible or intermediate for penicillins, cephalosporins and aztreonam is reported as resistant
[1] = Liposome association assay; format: binding; details: individual GST-mce domains, 1-80 mol % PA, densitometry; relative to high binding mce domains
Procedure: PBS-buffered liposomes were prepared from 1,2-Dioleoyl-sn-glycero-3-phosphocholine (PC) or mixtures of PC and 1,2-dioleoyl-sn-glycero-3-phosphate (PA) (both Avanti Polar Lipids Inc.) as described previously (Selyunin et al., 2011), but using PBS as buffer. 300 μg liposomes were incubated with 100 μg MBP-MAM protein in PBS for one hour at 22° C. Mixtures were centrifuged at 100 000×g, 4° C. for one hour and both pellet and supernatant fractions were separated by SDS-PAGE and proteins were detected by Coomassie staining.
Binding of GST and GST-mce constructs to liposomes were carried out as described in the literature (Krachler et al., 2011). 300 μg liposomes containing PC alone or 1-80 mol % PA were incubated with 100 μg GST and GST-mce proteins in PBS for one hour at 22° C. Mixtures were centrifuged at 100,000×g, 4° C. for one hour and both pellet and supernatant fractions were separated by SDS-PAGE and proteins detected by Coomassie staining Band intensities were determined using the gel analysis software UN-SCAN-IT (Silk Scientific Inc.) and intensities of pellet samples (% bound) were expressed as fraction of total intensities (supernatant and pellet samples combined).

[2] = Pull-down of liposomes (50 mol % PA, 50 mol % PC) on immobilized GST-mce domains; format: binding; details: 50 mol % PA and 50 mol % PC, molybdophosphoric acid assay
Procedure: Liposomes in load, flowthrough and eluate fractions were quantified using the method of Worth an Wright (1977). Briefly, samples were extracted with a mixture of chloroform and methanol, centrifuged and molybdophosphoric acid (Sigma) was added to the organic phase. Samples were centrifuged and the aqueous phase removed. Metol and sodium bisulfate were added to reduce the organic phase and the aqueous phase was removed again following centrifugation. The amount of phospholipid was determined by measuring absorbance at 680 nm and expressed as fraction of the amount detected in loaded fractions.
Although the inventors had previously shown that MAM1 is sufficient to bind to phosphatidic acid, it was unclear how the other mce domains contributed to phosphatidic acid binding in the absence of fibronectin. The inventors tested all seven individual mce domains (mce1-mce7) for phosphatidic acid binding using liposome association assays. Proteins were incubated with liposomes containing a mixture of PC and increasing amounts (1-80 mol %) of PA, followed by separation of liposome-bound and un-bound fractions by ultracentrifugation. All fractions were analyzed by SDS-PAGE (data not shown) followed by densitometry (FIG. 18A). […] When the inventors analyzed the mce domains of MAM7 for overall charge, they found only minor differences between individual domains. When they looked at charge distribution, however, the inventors observed that several basic residues that are otherwise well conserved between individual domains are mutated in mce 6. These include two residues which are lysines in mce 2, the strongest binding mce domain, but a serine and glutamine in mce 6, respectively, and a well conserved arginine which is replaced by a histidine in mce 6 (FIG. 18D). […]. (FIG. 18B and data not shown). […] GST-mce proteins were immobilized and incubated with liposomes. Bound liposomes were quantified using a molybdophosphoric acid assay. […]

[3] = Acinetobacter baumannii isolate 1
[4] = Acinetobacter baumannii isolate 2
[5] = Acinetobacter baumannii isolate 3
[6] = Acinetobacter baumannii isolate 4
[7] = Acinetobacter baumannii isolate 5
[8] = Pseudomonas aeruginosa isolate 1
[9] = Pseudomonas aeruginosa isolate 2
[10] = Pseudomonas aeruginosa isolate 3
[11] = Pseudomonas aeruginosa isolate 4
[12] = Pseudomonas aeruginosa isolate 5

CN(C)[C@@H]1C(O)=C(C(N)=O)C(=O)[C@@]2(O)C(O)=C3C(=O)c4c(O)cccc4[C@@](C)(O)[C@H]3C[C@@H]12 [Tet., Tetracycline]
S: interpretation of the result (Acinetobacter baumannii; [4]) | interpretation of the result (Escherichia coli; Escherichia coli isolate 2)
8 µg/mL: MIC (Acinetobacter baumannii; Acinetobacter baumannii isolate 5, read-out: minimal inhibiting concentration)
4 µg/mL: MIC (Acinetobacter baumannii; Acinetobacter baumannii isolate 2, read-out: minimal inhibiting concentration)
≤ 2 µg/mL: MIC (Escherichia coli; Escherichia coli isolate 2)
I: interpretation of the result (Acinetobacter baumannii; [7])
R: interpretation of the result (Acinetobacter baumannii; [3]) | interpretation of the result (Acinetobacter baumannii; [5]) | interpretation of the result (Acinetobacter baumannii; [6]) | interpretation of the result (Klebsiella ssp.; Klebsiella ssp. isolate 1) | interpretation of the result (Klebsiella ssp.; Klebsiella ssp. isolate 2) | interpretation of the result (Klebsiella ssp.; Klebsiella ssp. isolate 3) | interpretation of the result (Klebsiella ssp.; Klebsiella ssp. isolate 4) | interpretation of the result (Klebsiella ssp.; Klebsiella ssp. isolate 5) | interpretation of the result (Pseudomonas aeruginosa; [8]) | interpretation of the result (Pseudomonas aeruginosa; [9]) | interpretation of the result (Pseudomonas aeruginosa; [10]) | interpretation of the result (Pseudomonas aeruginosa; [11]) | interpretation of the result (Pseudomonas aeruginosa; [12]) | interpretation of the result (Escherichia coli; Escherichia coli isolate 1) | interpretation of the result (Escherichia coli; Escherichia coli isolate 3) | interpretation of the result (Escherichia coli; Escherichia coli isolate 4) | interpretation of the result (Escherichia coli; Escherichia coli isolate 5)
> 8 µg/mL: MIC (Acinetobacter baumannii; Acinetobacter baumannii isolate 1, read-out: minimal inhibiting concentration) | MIC (Acinetobacter baumannii; Acinetobacter baumannii isolate 3, read-out: minimal inhibiting concentration) | MIC (Acinetobacter baumannii; Acinetobacter baumannii isolate 4, read-out: minimal inhibiting concentration) | MIC (Klebsiella ssp.; Klebsiella ssp. isolate 1) | MIC (Klebsiella ssp.; Klebsiella ssp. isolate 2) | MIC (Klebsiella ssp.; Klebsiella ssp. isolate 3) | MIC (Klebsiella ssp.; Klebsiella ssp. isolate 4) | MIC (Klebsiella ssp.; Klebsiella ssp. isolate 5) | MIC (Pseudomonas aeruginosa; [8]) | MIC (Pseudomonas aeruginosa; [9]) | MIC (Pseudomonas aeruginosa; [10]) | MIC (Pseudomonas aeruginosa; [11]) | MIC (Pseudomonas aeruginosa; [12]) | MIC (Escherichia coli; Escherichia coli isolate 1) | MIC (Escherichia coli; Escherichia coli isolate 3) | MIC (Escherichia coli; Escherichia coli isolate 4) | MIC (Escherichia coli; Escherichia coli isolate 5)

NCC[C@H](O)C(=O)N[C@@H]1C[C@H](N)[C@@H](O[C@H]2O[C@H](CN)[C@@H](O)[C@H](O)[C@H]2O)[C@H](O)[C@H]1O[C@H]1O[C@H](CO)[C@@H](O)[C@H](N)[C@H]1O [Amik., Amikacin]
≤ 8 µg/mL: minimal inhibiting concentration (Klebsiella ssp.; Klebsiella ssp. isolate 1) | minimal inhibiting concentration (Klebsiella ssp.; Klebsiella ssp. isolate 2) | minimal inhibiting concentration (Klebsiella ssp.; Klebsiella ssp. isolate 3) | minimal inhibiting concentration (Klebsiella ssp.; Klebsiella ssp. isolate 4) | minimal inhibiting concentration (Pseudomonas aeruginosa; [8]) | minimal inhibiting concentration (Escherichia coli; Escherichia coli isolate 1) | minimal inhibiting concentration (Escherichia coli; Escherichia coli isolate 2) | minimal inhibiting concentration (Escherichia coli; Escherichia coli isolate 3) | minimal inhibiting concentration (Escherichia coli; Escherichia coli isolate 4) | minimal inhibiting concentration (Escherichia coli; Escherichia coli isolate 5)
I: interpretation of the result (Acinetobacter baumannii; [5]) | interpretation of the result (Pseudomonas aeruginosa; [11]) | interpretation of the result (Pseudomonas aeruginosa; [12])
R: interpretation of the result (Acinetobacter baumannii; [3]) | interpretation of the result (Acinetobacter baumannii; [4]) | interpretation of the result (Acinetobacter baumannii; [6]) | interpretation of the result (Acinetobacter baumannii; [7]) | interpretation of the result (Klebsiella ssp.; Klebsiella ssp. isolate 5)
32 µg/mL: minimal inhibiting concentration (Acinetobacter baumannii; [5]) | minimal inhibiting concentration (Pseudomonas aeruginosa; [11]) | minimal inhibiting concentration (Pseudomonas aeruginosa; [12])
S: interpretation of the result (Klebsiella ssp.; Klebsiella ssp. isolate 1) | interpretation of the result (Klebsiella ssp.; Klebsiella ssp. isolate 2) | interpretation of the result (Klebsiella ssp.; Klebsiella ssp. isolate 3) | interpretation of the result (Klebsiella ssp.; Klebsiella ssp. isolate 4) | interpretation of the result (Pseudomonas aeruginosa; [8]) | interpretation of the result (Pseudomonas aeruginosa; [9]) | interpretation of the result (Pseudomonas aeruginosa; [10]) | interpretation of the result (Escherichia coli; Escherichia coli isolate 1) | interpretation of the result (Escherichia coli; Escherichia coli isolate 2) | interpretation of the result (Escherichia coli; Escherichia coli isolate 3) | interpretation of the result (Escherichia coli; Escherichia coli isolate 4) | interpretation of the result (Escherichia coli; Escherichia coli isolate 5)
16 µg/mL: minimal inhibiting concentration (Pseudomonas aeruginosa; [9]) | minimal inhibiting concentration (Pseudomonas aeruginosa; [10])
> 32 µg/mL: minimal inhibiting concentration (Acinetobacter baumannii; [3]) | minimal inhibiting concentration (Acinetobacter baumannii; [4]) | minimal inhibiting concentration (Acinetobacter baumannii; [6]) | minimal inhibiting concentration (Acinetobacter baumannii; [7]) | minimal inhibiting concentration (Klebsiella ssp.; Klebsiella ssp. isolate 5)

CC1(C)S[C@@H]2[C@H](NC(=O)[C@H](N)c3ccccc3)C(=O)N2[C@H]1C(=O)O [Amp., Ampicillin]
R: interpretation of the result (Acinetobacter baumannii; [3]) | interpretation of the result (Acinetobacter baumannii; [4]) | interpretation of the result (Acinetobacter baumannii; [5]) | interpretation of the result (Acinetobacter baumannii; [6]) | interpretation of the result (Acinetobacter baumannii; [7]) | interpretation of the result (Klebsiella ssp.; Klebsiella ssp. isolate 1) | interpretation of the result (Klebsiella ssp.; Klebsiella ssp. isolate 2) | interpretation of the result (Klebsiella ssp.; Klebsiella ssp. isolate 3) | interpretation of the result (Klebsiella ssp.; Klebsiella ssp. isolate 4) | interpretation of the result (Klebsiella ssp.; Klebsiella ssp. isolate 5) | interpretation of the result (Pseudomonas aeruginosa; [8]) | interpretation of the result (Pseudomonas aeruginosa; [9]) | interpretation of the result (Pseudomonas aeruginosa; [10]) | interpretation of the result (Pseudomonas aeruginosa; [11]) | interpretation of the result (Pseudomonas aeruginosa; [12]) | interpretation of the result (Escherichia coli; Escherichia coli isolate 1) | interpretation of the result (Escherichia coli; Escherichia coli isolate 2) | interpretation of the result (Escherichia coli; Escherichia coli isolate 3) | interpretation of the result (Escherichia coli; Escherichia coli isolate 4) | interpretation of the result (Escherichia coli; Escherichia coli isolate 5)
> 16 µg/mL: MIC (Acinetobacter baumannii; read-out: minimal inhibiting concentration, Acinetobacter baumannii isolate 1) | MIC (Acinetobacter baumannii; read-out: minimal inhibiting concentration, Acinetobacter baumannii isolate 2) | MIC (Acinetobacter baumannii; read-out: minimal inhibiting concentration, Acinetobacter baumannii isolate 3) | MIC (Acinetobacter baumannii; read-out: minimal inhibiting concentration, Acinetobacter baumannii isolate 4) | MIC (Acinetobacter baumannii; read-out: minimal inhibiting concentration, Acinetobacter baumannii isolate 5) | minimal inhibiting concentration (Klebsiella ssp.; Klebsiella ssp. isolate 2) | minimal inhibiting concentration (Klebsiella ssp.; Klebsiella ssp. isolate 3) | minimal inhibiting concentration (Klebsiella ssp.; Klebsiella ssp. isolate 4) | minimal inhibiting concentration (Klebsiella ssp.; Klebsiella ssp. isolate 5) | MIC (Klebsiella ssp.) | minimal inhibiting concentration (Pseudomonas aeruginosa; [9]) | minimal inhibiting concentration (Pseudomonas aeruginosa; [10]) | minimal inhibiting concentration (Pseudomonas aeruginosa; [11]) | minimal inhibiting concentration (Pseudomonas aeruginosa; [12]) | MIC (Pseudomonas aeruginosa) | minimal inhibiting concentration (Escherichia coli; Escherichia coli isolate 2) | minimal inhibiting concentration (Escherichia coli; Escherichia coli isolate 3) | minimal inhibiting concentration (Escherichia coli; Escherichia coli isolate 4) | minimal inhibiting concentration (Escherichia coli; Escherichia coli isolate 5) | MIC (Escherichia coli)

B1: mce 1: GST-tagged individual mce domain 1 of V. parahaemolyticus MAM7 (SEQ ID NO: 5) (protein, listed as Vibrio parahaemolyticus)
chain: AGQRVQIYFSDAAGLVAGRTTIRYQGLEVGMVRDINLSEDLGSIYVDADIYPEATKLLNDKTRFWLVKPTASLTGVSGLDALVSGNYISIQPG
modifications: GST tag
strong binding: binding of liposomes to immobilized GST-mce proteins [2]
bound equally well: decrease of binding to PA-containing liposomes (apparent affinity) [1]

B2: mce 3: GST-tagged individual mce domain 3 of V. parahaemolyticus MAM7 (SEQ ID NO: 7) (protein, listed as Vibrio parahaemolyticus)
chain: RGIAIKIALPDDNKVSSEGAPIMYRGIEIGQVTDLSLSEGREVILASAAIQPAFSDMLTTGTRFVLEEAKVSLSGVENIANLVRGNFLTIVPG
modifications: GST tag
bound equally well: decrease of binding to PA-containing liposomes (apparent affinity) [1]
strong binding: binding of liposomes to immobilized GST-mce proteins [2]

B3: mce 2: GST-tagged individual mce domain 2 of V. parahaemolyticus MAM7 (SEQ ID NO: 6) (protein, listed as Vibrio parahaemolyticus)
chain: QGLNIKLKSRDLGGVSIGSQIVYKKIPIGAVYSYQLDEDAKSITIQANIQEQYRHIINDRSRFWNVSGIGASIGFEGVDVRLESMSALLGG
modifications: GST tag
bound equally well: decrease of binding to PA-containing liposomes (apparent affinity) [1]
strong binding: binding of liposomes to immobilized GST-mce proteins [2]
